# Test results taken from PMC7705112, “A Novel, Broad-Acting Peptide Inhibitor of Double-Stranded DNA Virus Gene Expression and Replication” (Frontiers in Microbiology, 2020).
# Peptide text beside a SMILES is read from it.
# Experiments:
# HEK293 cells = assay: Cell viability, CellTiter-Glo 2.0; type: cell-based; conditions: 96 h incubation; Figure 2B, triplicate wells
# Description: Vero, MRC-5, and CV-1 cells were cultured in Dulbecco’s Modified Eagle Medium (DMEM; ThermoFisher, Waltham, MA, United States) and Jurkat cells were cultured in RPMI 1640 medium containing 10% fetal calf serum, 100 U/ml penicillin, and 0.1 mg/ml streptomycin (ThermoFisher). HEK293 and NIH/3T3 cells were adapted to growth in CO2-independent medium supplemented with 10% fetal calf serum, 2 mM glutamine, and 1% antibiotic-antimycotic (ThermoFisher) and cultivated in a humidified atmosphere at 37°C. […] Viability was analyzed using CellTiter-Glo® 2.0 Assay according to the manufacturer’s protocol (Promega). […] Cytotoxicity was analyzed using MultiTox-Glo Multiplex Cytotoxicity Assay according to the manufacturer’s protocol (Promega).
# [1] = system: firefly luciferase reporter gene under control of the CMV promoter, HEK293 cells; assay: Luciferase expression from transfected CMV promoter plasmid (Superfect); type: cell-based; conditions: HEK293, Figure 1D, TAT (47–57) alone
# Description: Briefly, for one well of a 48-well plate, 100 ng DNA and 1 μl Superfect reagent were mixed by pipetting followed by addition of 12.5 μl of serum‐ and antibiotic-free medium. After brief vortexing and further incubation at room temperature for 15 min, 112.5 μl medium containing 10% fetal calf serum and antibiotics were added. For transfection in the presence of peptides, a transfection mixture of DNA, Superfect reagent, and serum-and antibiotic-free medium were prepared for the required number of wells. From this mixture, 25 μl aliquots were made and 0.5 μl peptides (10 mM each) added to each aliquot, vortexed briefly, and incubated for 15 min at room temperature. Then, 225 μl of medium containing 10% fetal calf serum was added and 125 μl applied per well of duplicate wells. For other types of multi-well plates, volumes were adapted according to the growth area of the wells.
# [2] = system: HSV-1 F, HSV-1 703, HSV-1 601; type: cell-based, herpes simplex virus; conditions: HSV-1 isolate 703; Figure S6A
# Varicella zoster virus = assay: VZV cytopathic effect; conditions: human fibroblasts, pre-treated, infected 1 h, three days, microscopy
compound,measurement,setting,value
CC(C)C[C@H](NC(=O)[C@H](CS)NC(=O)[C@H](Cc1ccc(O)cc1)NC(=O)[C@@H]1CCCN1C(=O)[C@H](CC(=O)O)NC(=O)[C@H](CCC(=O)O)NC(=O)[C@@H](NC(=O)[C@H](CCCCN)NC(=O)[C@H](CCCNC(=N)N)NC(=O)[C@H](CCCCN)NC(=O)[C@H](CCCCN)NC(=O)[C@H](CCCCN)NC(=O)[C@@H]1CCCN1)C(C)C)C(=O)N[C@@H](C)C(=O)N[C@@H](Cc1ccccc1)C(=O)N[C@@H](Cc1ccc(O)cc1)C(=O)N[C@@H](C)C(=O)N[C@@H](CS)C(=O)N[C@@H](Cc1ccccc1)C(=O)N[C@@H](CS)C(=O)O [SV40 NLS-I24] (H-PKKKRKVEDPYCLAFYACFC-OH),EC50,"Baculovirus-Luc; read-out: EC50, inhibition of reporter gene expression, HEK293, Figure 2E, triplicate wells",1 µM
CC(C)C[C@H](NC(=O)[C@@H](N)CS)C(=O)N[C@@H](C)C(=O)N[C@@H](Cc1ccccc1)C(=O)N[C@@H](Cc1ccc(O)cc1)C(=O)N[C@@H](C)C(=O)N[C@@H](CS)C(=O)N[C@@H](Cc1ccccc1)C(=O)N[C@@H](CS)C(=O)O [I24] (H-CLAFYACFC-OH),effects on HEK293 cell viability,HEK293 cells,no effects
"YGRKKRRQRRR [TAT (47–57), TAT peptide from Sigma, …]",effect on luciferase levels,"Baculovirus-Luc; HEK293, 24 h, Figure 2A (TAT = TAT (47–57))",did not affect
same,effect on reporter gene expression,[1],ineffective
"Nc1nc2c(ncn2COCCO)c(=O)[nH]1 [ACV, aciclovir]",sensitivity of isolate to aciclovir,[2],resistance
same,CPE,Varicella zoster virus,4 µM
YGRKKRRQRRRC [TAT-C],inhibition of luciferase expression,"Baculovirus-Luc; HEK293, at the highest tested concentration of 20 μM, Figure 2E",only partial inhibition
